Patent EP2987533B1, “7-substituted piperazin-1-yl fluoroquinolone compounds, their use in the treatment of cancer, pharmaceutical compositions and a method for preparation” (priority 2014, dated 2016)

Experiments:
SK-MEL-5 = test: NCI five-dose SRB growth assay; assay type: cell-based; conditions: Homo sapiens; SK-MEL-5 (Melanoma), 48 h
SF-539 = test: NCI five-dose SRB growth assay; assay type: cell-based; conditions: Homo sapiens; SF-539 (CNS Cancer), 48 h
HCT-116 = test: NCI five-dose SRB growth assay; assay type: cell-based; conditions: Homo sapiens; HCT-116 (Colon Cancer), 48 h
[1] = system: 60 human tumor cell line panel; test: NCI 60 cell line one-dose SRB primary anticancer assay; assay type: cell-based; conditions: 60 cell lines assay in one dose, 10µM (title; head prints 10.0 mM), 48 h
Protocol: A primary anticancer assay was performed for an approximately 60 human tumor cell line panel derived from nine neoplastic diseases, in accordance with the protocol of the Drug Evaluation Branch, National Cancer Institute, Bethesda, MD (Monks A. et al., J. Natl. Cancer Inst 1991, 83, 757-766; Boyd M.R. and Paull K.D., Drug. Dev. Res. 1995, 34, 91-109; Shoemaker R.H., Nat. Rev. Cancer 2006, 6, 813-823). Briefly, tested compounds were added to the culture at a single concentration (10^-5M), and the cultures were incubated for 48 h. End point determinations were made with a protein binding dye, sulforhodamine B (SRB). The results for each tested compound were reported as the growth percentage of the treated cells when compared to that of the untreated control cells. The percentage growth was evaluated spectrophotometrically versus controls not treated with test agents.

leukemia = test: NCI five-dose SRB assay, subpanel average; conditions: 48 h
CNS cancer = test: NCI five-dose SRB assay, subpanel average; conditions: 48 h
colon cancer = test: NCI five-dose SRB assay, subpanel average; conditions: 48 h
prostate cancer = test: NCI five-dose SRB assay, subpanel average; conditions: 48 h
breast cancer = test: NCI five-dose SRB assay, subpanel average; conditions: 48 h
UACC-62 = test: NCI five-dose SRB growth assay; assay type: cell-based; conditions: Homo sapiens; UACC-62 (Melanoma), 48 h
SF-268 = test: NCI five-dose SRB growth assay; assay type: cell-based; conditions: Homo sapiens; SF-268 (CNS Cancer), 48 h
786-0 = test: NCI five-dose SRB growth assay; assay type: cell-based; conditions: Homo sapiens; 786-0 (Renal Cancer), 48 h
renal cancer = test: NCI five-dose SRB assay, subpanel average; conditions: 48 h
melanoma = test: NCI five-dose SRB assay, subpanel average; conditions: 48 h
ACHN [2] = test: NCI five-dose SRB growth assay; assay type: cell-based; conditions: Homo sapiens; ACHN (Renal Cancer), 48 h
MDA-MB-435 = test: NCI five-dose SRB growth assay; assay type: cell-based; conditions: Homo sapiens; MDA-MB-435 (Melanoma), 48 h
COLO 205 = test: NCI five-dose SRB growth assay; assay type: cell-based; conditions: Homo sapiens; COLO 205 (Colon Cancer), 48 h
SN12C = test: NCI five-dose SRB growth assay; assay type: cell-based; conditions: Homo sapiens; SN12C (Renal Cancer), 48 h
ovarian cancer = test: NCI five-dose SRB assay, subpanel average; conditions: 48 h
T-47D [3] = test: NCI five-dose SRB growth assay; assay type: cell-based; conditions: Homo sapiens, T47D; T-47D (Breast Cancer), 48 h
T-47D [4] = test: NCI one-dose SRB growth assay; assay type: cell-based; conditions: Homo sapiens, T47D; T-47D (Breast Cancer), 10^-5 M, 48 h; read-out: % Growth Inhibition (GI %)
Summary of the method: (§1)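 Read-out: sulforhodamine B protein-binding dye, measured spectrophotometrically, expressed as percent growth of treated versus untreated cells. Cultures received test compound at 10^-5M and were incubated 48 h.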

MDA-MB-468 = test: NCI one-dose SRB growth assay; assay type: cell-based; conditions: Homo sapiens; MDA-MB-468 (Breast Cancer), 10^-5 M, 48 h; read-out: % Growth Inhibition (GI %)
Summary of the method: as §1

ACHN [5] = test: NCI one-dose SRB growth assay; assay type: cell-based; conditions: Homo sapiens; ACHN (Renal Cancer), 10^-5 M, 48 h; read-out: % Growth Inhibition (GI %)
Summary of the method: as §1

SK-MEL-2 = test: NCI one-dose SRB growth assay; assay type: cell-based; conditions: Homo sapiens; SK-MEL-2 (Melanoma), 10^-5 M, 48 h; read-out: % Growth Inhibition (GI %)
NCI-H322M = test: NCI one-dose SRB growth assay; assay type: cell-based; conditions: Homo sapiens; NCI-H322M (Non-Small Cell Lung Cancer), 10^-5 M, 48 h; read-out: % Growth Inhibition (GI %)
HOP-62 = test: NCI one-dose SRB growth assay; assay type: cell-based; conditions: Homo sapiens; HOP-62 (Non-Small Cell Lung Cancer), 10^-5 M, 48 h; read-out: % Growth Inhibition (GI %)
Summary of the method: as §1

HL-60(TB) = test: NCI one-dose SRB growth assay; assay type: cell-based; conditions: Homo sapiens; HL-60(TB) (Leukemia), 10^-5 M, 48 h; read-out: % Growth Inhibition (GI %)
NSC lung cancer = test: NCI five-dose SRB assay, subpanel average; conditions: 48 h
BT-549 = test: NCI five-dose SRB growth assay; assay type: cell-based; conditions: Homo sapiens; BT-549 (Breast Cancer), 48 h
[6] = Homo sapiens, read-out: GI50 (median growth inhibitory)
[7] = Homo sapiens, read-out: LC50 (median lethal)

CCn1cc(C(=O)O)c(=O)c2cc(F)c(N3CCN(S(=O)(=O)c4ccc(Cl)cc4Cl)CC3)cc21 [Compound 2a]
GI50 (SK-MEL-5): 1.87 µM
GI50 (SF-539): 1.92 µM
GI50 (HCT-116): 3.56 µM
PCE (Positive cytotoxic effect: ratio between number of cell lines with percentage growth inhibition from 10 to >100 and total number of cell lines) [1]: 56/58
RGI % (Range of growth inhibition percentage) [1]: >100.0 to 25.22%
inhibition at 10 µM ([1]; Homo sapiens, read-out: MGI % (Mean growth inhibition percentage)): 94.2%
GI50 (leukemia; [6]): 3.07 µM
CC50 (leukemia; [7]): > 100 µM
TGI (total growth inhibitory) (leukemia; average over leukemia subpanel, five concentrations): 62.54 µM
GI50 (CNS cancer; [6]): 3.03 µM
CC50 (CNS cancer; [7]): 77.2 µM
TGI (total growth inhibitory) (CNS cancer; average over CNS cancer subpanel, five concentrations): 34.84 µM
GI50 (colon cancer; [6]): 3.15 µM
CC50 (colon cancer; [7]): 77.2 µM
TGI (total growth inhibitory) (colon cancer; average over colon cancer subpanel, five concentrations): 72.89 µM
GI50 (prostate cancer; [6]): 2.62 µM
CC50 (prostate cancer; [7]): > 100 µM
TGI (total growth inhibitory) (prostate cancer; average over prostate cancer subpanel, five concentrations): 8.72 µM
GI50 (breast cancer; [6]): 2.51 µM
CC50 (breast cancer; [7]): 88.1 µM
TGI (total growth inhibitory) (breast cancer; average over breast cancer subpanel, five concentrations): 8.44 µM
GI50 (UACC-62): 1.61 µM
GI50 (SF-268): 3.86 µM
GI50 (786-0): 3.19 µM
GI50 (renal cancer; [6]): 2.73 µM
CC50 (renal cancer; [7]): 82.5 µM
TGI (total growth inhibitory) (renal cancer; average over renal cancer subpanel, five concentrations): 23.97 µM
GI50 (melanoma; [6]): 2.3 µM
CC50 (melanoma; [7]): 39.5 µM
TGI (total growth inhibitory) (melanoma; average over melanoma subpanel, five concentrations): 6.36 µM
GI50 (ACHN [2]): 2.62 µM
GI50 (MDA-MB-435): 1.97 µM
GI50 (COLO 205): 2.44 µM
GI50 (SN12C): 2.77 µM
GI50 (ovarian cancer; [6]): 2.96 µM
CC50 (ovarian cancer; [7]): 76.7 µM
TGI (total growth inhibitory) (ovarian cancer; average over ovarian cancer subpanel, five concentrations): 39.54 µM
GI50 (T-47D [3]): 3.11 µM
inhibition at 10 µM (T-47D [4]): 98.3%
inhibition at 10 µM (MDA-MB-468): > 100%
inhibition at 10 µM (ACHN [5]): > 100%
inhibition at 10 µM (SK-MEL-2): > 100%
inhibition at 10 µM (NCI-H322M): > 100%
inhibition at 10 µM (HOP-62): 80.5%
inhibition at 10 µM (HL-60(TB)): > 100%
GI50 (NSC lung cancer; [6]): 2.49 µM
CC50 (NSC lung cancer; [7]): 73.2 µM
TGI (total growth inhibitory) (NSC lung cancer; average over NSC lung cancer subpanel, five concentrations): 19.61 µM
GI50 (BT-549): 2.64 µM
